Experimental data reported in patent US8680159B2, “Bradykinin 1 receptor modulating compounds” (Gruenenthal GmbH, priority 2010, dated 2014).

Columns and labels:
[1] = biological target: T1, B1R receptor of the rat (CHO K1 cells stably transfected with the B1R gene of the rat) (Rattus norvegicus, UniProt P97583); test: Functional study on the bradykinin receptor 1 (B1R), Ca2+ fluorescence (Fluo-4) FLIPR/Novostar assay, rB1R cells; format: cell-based; conditions: for inhibition at 10 µM: CHO-K1, 10 μM, read-out: % inhibition (rat B1R) at 10 μM
T1 construct: expressed in transfected cells; host or cells: CHO K1 cells (Chinese hamster ovary), stably transfected
T1 sequence (P97583 1-337): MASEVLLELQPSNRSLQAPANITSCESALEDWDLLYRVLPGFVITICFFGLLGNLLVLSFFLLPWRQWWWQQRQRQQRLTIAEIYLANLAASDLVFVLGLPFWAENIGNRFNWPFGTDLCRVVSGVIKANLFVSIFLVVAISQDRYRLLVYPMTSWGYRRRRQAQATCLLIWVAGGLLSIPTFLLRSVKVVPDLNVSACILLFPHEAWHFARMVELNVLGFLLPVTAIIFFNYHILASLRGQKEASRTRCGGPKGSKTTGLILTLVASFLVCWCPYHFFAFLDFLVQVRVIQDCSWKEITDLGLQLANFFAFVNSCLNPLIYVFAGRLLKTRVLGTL
Procedure, shortened: (§1)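 Test compounds (10 μM) were added first and the Ca2+ rise was scored as % activation against Lys-Des-Arg9-bradykinin (≥50 nM, human) or Des-Arg9-bradykinin (≥1 μM, rat). After 6-20 min, the matching agonist was given at its EC80, and % inhibition relative to maximal achievable inhibition was calculated.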

[2] = biological target: T2, human B1R receptor (CHO K1 cells stably transfected with the human B1R gene) (Homo sapiens, UniProt P46663); test: Functional study on the bradykinin receptor 1 (B1R), Ca2+ fluorescence (Fluo-4) FLIPR/Novostar assay, hB1R cells; format: cell-based; conditions: for inhibition at 10 µM: CHO-K1, read-out: % inhibition (human B1R) at 10 μM
T2 construct: expressed in transfected cells; host or cells: CHO K1 cells (Chinese hamster ovary), stably transfected
T2 sequence (P46663 1-353): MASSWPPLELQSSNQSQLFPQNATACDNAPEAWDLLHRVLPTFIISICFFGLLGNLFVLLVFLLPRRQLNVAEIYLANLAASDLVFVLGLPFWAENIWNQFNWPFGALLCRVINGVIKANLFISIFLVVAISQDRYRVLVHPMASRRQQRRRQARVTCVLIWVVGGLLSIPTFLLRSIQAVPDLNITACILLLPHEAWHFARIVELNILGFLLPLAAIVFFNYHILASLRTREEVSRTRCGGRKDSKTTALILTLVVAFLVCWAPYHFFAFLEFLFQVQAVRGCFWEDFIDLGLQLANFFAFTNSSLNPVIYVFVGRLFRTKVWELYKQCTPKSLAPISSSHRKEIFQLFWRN
Procedure, shortened: as §1

Row | Structure (SMILES) | inhibition at 10 µM [1] [%] | inhibition at 10 µM [2] [%] | % inhibition (rat B1R) at 10 μM ([1]; 10 μM) [%] | % inhibition (human B1R) at 10 μM [2] [%]
1 | O=C(NCC1CCN(c2ccncc2)CC1)c1ccc2c(c1)[C@H](NC(=O)c1ccccc1Cl)CC2 [Example H-03, (3R)-3-[(2-Chloro-benzoyl)amino]-N-[(1-pyridin-4-yl-piperidin-4-yl)-methyl]-2,3-dihydro-1H-indene-5-carboxylic acid amide] | 108 | 15 |  | 
2 | O=C(NC1CCN(c2ccc(C(F)(F)F)cn2)C1)c1ccc2c(c1)[C@H](NC(=O)c1ccccc1Cl)CC2 (stereo partly drawn) [Example H-04, (3R)-3-[(2-Chloro-benzoyl)amino]-N-[1-[5-(trifluoromethyl)-pyridin-2-yl]-pyrrolidin-3-yl]-2,3-dihydro-1H-indene-5-carboxylic acid amide] | 47 | 21 |  | 
3 | CN(C(=O)c1ccc2c(c1)[C@H](NC(=O)c1ccccc1Cl)CC2)C1CCN(c2ccncc2)CC1 [Example H-06, (3R)-3-[(2-Chloro-benzoyl)amino]-N-methyl-N-(1-pyridin-4-yl-piperidin-4-yl)-2,3-dihydro-1H-indene-5-carboxylic acid amide] | 102 | 100 |  | 
4 | O=C(NC1CCN(c2ccncc2)CC1)c1ccc2c(c1)[C@H](NC(=O)c1ccccc1Cl)CC2 [Example H-07, (3R)-3-[(2-Chloro-benzoyl)amino]-N-(1-pyridin-4-yl-piperidin-4-yl)-2,3-dihydro-1H-indene-5-carboxylic acid amide] | 96 | 43 |  | 
5 | O=C(N[C@H]1CCN(C2CCN(C3CC3)CC2)C1)c1ccc2c(c1)[C@H](NC(=O)c1ccccc1Cl)CC2 [Example H-09, (3R)-3-[(2-Chloro-benzoyl)amino]-N-[(3S)-1-(1-cyclopropyl-piperidin-4-yl)-pyrrolidin-3-yl]-2,3-dihydro-1H-indene-5-carboxylic acid amide] | 83 | 38 |  | 
6 | O=C(NCC1CCCN(c2ccncc2)C1)c1ccc2c(c1)[C@H](NC(=O)c1ccccc1Cl)CC2 (stereo partly drawn) [Example H-10, (3R)-3-[(2-Chloro-benzoyl)amino]-N-[(1-pyridin-4-yl-piperidin-3-yl)-methyl]-2,3-dihydro-1H-indene-5-carboxylic acid amide] | 97 | 18 |  | 
7 | CN(C(=O)c1ccc2c(c1)CC[C@H]2N1Cc2cccc(Cl)c2C1=O)C1CCN(c2ccncc2)CC1 [Example H-11, (1R)-1-(4-Chloro-3-oxo-1,2-dihydro-isoindol-2-yl)-N-methyl-N-(1-pyridin-4-yl-piperidin-4-yl)-2,3-dihydro-1H-indene-5-carboxylic acid amide] | 49 | 99 |  | 
8 | CN(C(=O)c1ccc2c(c1)[C@H](N1Cc3cccc(Cl)c3C1=O)CC2)C1CCN(c2ccncc2)CC1 [Example H-12, (3R)-3-(4-Chloro-3-oxo-1,2-dihydro-isoindol-2-yl)-N-methyl-N-(1-pyridin-4-yl-piperidin-4-yl)-2,3-dihydro-1H-indene-5-carboxylic acid amide] | 100 | 100 |  | 
9 | CN1CCN(C2CCC(NC(=O)c3ccc4c(c3)[C@H](NC(=O)c3ccccc3Cl)CC4)C(C)(C)C2)CC1 (stereo partly drawn) [Example H-14, (3R)-3-[(2-Chloro-benzoyl)amino]-N-[2,2-dimethyl-4-(4-methyl-piperazin-l-yl)-cyclohexyl]-2,3-dihydro-1H-indene-5-carboxylic acid amide] |  |  | 76 | 64
10 | O=C(NCCC1CCN(c2ccncc2)CC1)c1ccc2c(c1)[C@H](NC(=O)c1ccccc1Cl)CC2 [Example H-15, (3R)-3-[(2-Chloro-benzoyl)amino]-N-[2-(1-pyridin-4-yl-piperidin-4-yl)-ethyl]-2,3-dihydro-1H-indene-5-carboxylic acid amide] | 99 | 100 |  | 
11 | CN(C(=O)c1ccc2c(c1)CC[C@H]2NS(=O)(=O)c1ccccc1Cl)C1CCN(c2ccncc2)CC1 [Example H-16, (1R)-1-[[(2-Chlorophenyl)sulfonyl]amino]-N-methyl-N-(1-pyridin-4-yl-piperidin-4-yl)-2,3-dihydro-1H-indene-5-carboxylic acid amide] | 92 | 100 |  | 
12 | CN(C(=O)c1ccc2c(c1)CC[C@H]2NC(=O)c1ccccc1Cl)C1CCN(c2ccncc2)CC1 [Example H-17, (1R)-1-[(2-Chloro-benzoyl)amino]-N-methyl-N-(1-pyridin-4-yl-piperidin-4-yl)-2,3-dihydro-1H-indene-5-carboxylic acid amide] | 77 | 100 |  | 
13 | CN(C(=O)c1ccc2c(c1)[C@H](NC(=O)C1CCC1)CC2)C1CCN(c2ccncc2)CC1 [Example H-18, (3R)-3-(Cyclobutanecarbonylamino)-N-methyl-N-(1-pyridin-4-yl-piperidin-4-yl)-2,3-dihydro-1H-indene-5-carboxylic acid amide] | 102 | 100 |  | 
14 | CN(C(=O)c1ccc2c(c1)[C@H](NC(=O)C(C)(C)C)CC2)C1CCN(c2ccncc2)CC1 [Example H-19, (3R)-3-(2,2-Dimethyl-propanoylamino)-N-methyl-N-(1-pyridin-4-yl-piperidin-4-yl)-2,3-dihydro-1H-indene-5-carboxylic acid amide] | 103 | 98 |  | 
15 | CN(C(=O)c1ccc2c(c1)[C@H](NC(=O)c1ccccc1Cl)CCO2)C1CCN(c2ccncc2)CC1 [Example H-20, (4R)-4-[(2-Chloro-benzoyl)amino]-N-methyl-N-(1-pyridin-4-yl-piperidin-4-yl)-3,4-dihydro-2H-chromene-6-carboxylic acid amide] | 103 | 100 |  | 
16 | CN(C(=O)c1ccc2c(c1)[C@@H](NC(=O)c1ccccc1Cl)CC2)C1CCN(c2ccncc2)CC1 [Example H-21, (3S)-3-[(2-Chloro-benzoyl)amino]-N-methyl-N-(1-pyridin-4-yl-piperidin-4-yl)-2,3-dihydro-1H-indene-5-carboxylic acid amide] | 105 | 99 |  | 
17 | CN(C(=O)c1ccc2c(c1)[C@H](NC(=O)c1cnn3cccnc13)CC2)C1CCN(c2ccncc2)CC1 [Example H-22, N-[(1R)-6-[Methyl-(1-pyridin-4-yl-piperidin-4-yl)-carbamoyl]-2,3-dihydro-1H-indene-1-yl]-pyrazolo[1,5-a]pyrimidine-3-carboxylic acid amide] | 87 | 100 |  | 
18 | CN(C(=O)c1ccc2c(c1)[C@H](NC(=O)c1ccccc1Cl)CC2)C1CCN(c2ccccn2)CC1 [Example H-23, (3R)-3-[(2-Chloro-benzoyl)amino]-N-methyl-N-(1-pyridin-2-yl-piperidin-4-yl)-2,3-dihydro-1H-indene-5-carboxylic acid amide] | 93 | 97 |  | 
19 | CN(C(=O)c1ccc2c(c1)[C@H](NC(=O)c1cccc(C(F)(F)F)c1Cl)CC2)C1CCN(c2ccncc2)CC1 [Example H-24, (3R)-3-[[2-Chloro-3-(trifluoromethyl)-benzoyl]amino]-N-methyl-N-(1-pyridin-4-yl-piperidin-4-yl)-2,3-dihydro-1H-indene-5-carboxylic acid amide] | 98 | 100 |  | 
20 | CN(C(=O)c1ccc2c(c1)[C@H](NC(=O)Cc1ccccc1)CC2)C1CCN(c2ccncc2)CC1 [Example H-25, (3R)-N-Methyl-3-[(2-phenyl-acetyl)amino]-N-(1-pyridin-4-yl-piperidin-4-yl)-2,3-dihydro-1H-indene-5-carboxylic acid amide] | 96 | 100 |  | 
21 | CN(C(=O)c1ccc2c(c1)CC[C@H]2N1Cc2cccc(Cl)c2C1=O)C1CCN(c2ccccn2)CC1 [Example H-26, (1R)-1-(4-Chloro-3-oxo-1,2-dihydro-isoindol-2-yl)-N-methyl-N-(1-pyridin-2-yl-piperidin-4-yl)-2,3-dihydro-1H-indene-5-carboxylic acid amide] | 0 | 52 |  | 
22 | CN(C(=O)c1ccc2c(c1)CC[C@H]2N1Cc2cccc(Cl)c2C1=O)C1CCN(Cc2ccncc2)CC1 [Example H-27, (1R)-1-(4-Chloro-3-oxo-1,2-dihydro-isoindol-2-yl)-N-methyl-N-[1-(pyridin-4-yl-methyl)-piperidin-4-yl]-2,3-dihydro-1H-indene-5-carboxylic acid amide] | 11 | 74 |  | 
